Test results from patent publication US20040197222A1 (priority 2002, published 2004).
“Also recorded” adds a separate entry of the source. Read-outs that look alike come from different tables or passages of the source.

Experiments:
[1] = system: B. subtilis var. niger strips containing 10^8 spores; type: cell-based, Bacillus subtilis var. niger; conditions: 28 °C to 38 °C, 250 to 350 oz/mcf, 48 hours
[2] = system: Bacillus anthracis ANR-1 spores; type: cell-based; conditions: 37 °C; for reduction in B. anthracis spores: all concentrations tested (80 to 320 mg/L)
[3] = system: B. stearothermophilus spores (10^5, ATCC #7953); type: cell-based, Bacillus stearothermophilus
[4] = system: 10^5 of B. stearothermophilus ATCC # 7953; experiment: Trailer field fumigation, combined-species spore strips incubated for B. stearothermophilus; type: cell-based, Bacillus stearothermophilus
[5] = system: G. stearothermophilus spores; type: cell-based
[6] = system: 10^6 spores of B. subtilis var. niger ATCC # 9372; type: cell-based, Bacillus subtilis var. niger; conditions: trailer, 20 sites, 28 °C to 38 °C, 250 to 350 oz/mcf, 48 hours
[7] = system: B. subtilis var. niger spores (10^6, ATCC #9372); type: cell-based, Bacillus subtilis var. niger; conditions: for germination of B. subtilis spores: exposure as long as 164 hours
[8] = system: B. atrophaeus spores; type: cell-based

CBr [methyl bromide]
germination of spores in strips with concentrations of 10^8, field fumigation [1]: successfully disabled | lowest total concentration at which treatment is effective (B. anthracis) ([2]; 48 hours): 80 mg/L | reduction in B. anthracis spores ([2]; 48 hours): ≥ 7 log | reduction in B. anthracis spores ([2]; 48 hours, listed as MB): ≥ 6 log | B. anthracis spores in chamber 6 ([2]; chamber 6, 48 hours): completely killed | B. anthracis spores remaining (detection level) ([2]; out of 14 million, 80 to 320 mg/L, 48 hours): < 50 spores | Spore Germination B. stearo. [3]: no and yes | germination of Bacillus stearothermophilus spores [3]: prevented from germinating | spores on all 10^5 B. stearothermophilus strips, field fumigation [4]: successfully disabled; also recorded: killed | Recovery of viable spores, commercial spore strips G. stearothermophilus A [5]: no growth | Recovery of viable spores, commercial spore strips G. stearothermophilus B [5]: no growth; also recorded: growth | killing of G. stearothermophilus spores on a spore strip [5]: capable of killing all G. stearothermophilus spores | spores on all 10^6 B. subtilis strips, field fumigation [6]: successfully disabled | spores on all 10^6 B. subtilis strips, field fumigation ([6]; listed as MB): killed | Spore Germination B. subtilis ([7]; 19 °C, MeBr 48 mg/l (theoretical), 104 hours, 5,000 mg-hr/l): yes | Spore Germination B. subtilis ([7]; 19 °C, MeBr 48 mg/l (theoretical), 146 hours, 7,000 mg-hr/l): yes | Spore Germination B. subtilis ([7]; 19 °C, MeBr 80 mg/l (theoretical), 112 hours, 9,000 mg-hr/l): yes | Spore Germination B. subtilis ([7]; 19 °C, MeBr 80 mg/l (theoretical), 134 hours, 11,000 mg-hr/l): yes | Spore Germination B. subtilis ([7]; 19 °C, MeBr 80 mg/l (theoretical), 164 hours, 13,120 mg-hr/l): yes | Spore Germination B. subtilis ([7]; 19 °C, MeBr 160 mg/l (theoretical), 164 hours, 26,240 mg-hr/l): yes | germination of B. subtilis spores ([7]; 19 °C, methyl bromide 48 to 80 mg/l (theoretical value)): still germinated | germination of B. subtilis spores ([7]; 19 °C, methyl bromide as high as 320 mg/l (theoretical value)): still able to germinate | B. subtilis spore germination ([7]; 27 °C, methyl bromide 320 mg/l (theoretical value), 72 hours): successfully disabled | germination of the B. subtilis spores ([7]; 32 °C, methyl bromide 160 mg/l (theoretical value), 72 hours): not sufficient to stop germination; also recorded: not sufficient to prevent germination | B. subtilis spore germination ([7]; 32 °C, methyl bromide 240 mg/l (theoretical value), 38 hours): successfully disabled | Spore Germination B. subtilis ([7]; Example 1, 19 °C, MeBr 48 mg/l (theoretical), 63 hours, 3,000 mg-hr/l): yes | Spore Germination B. subtilis ([7]; Example 2, 19 °C, MeBr 48 mg/l (theoretical), 63 hours, 3,000 mg-hr/l): yes | Spore Germination B. subtilis ([7]; Example 2, 20 °C, MeBr 320 mg/l (theoretical), 72 hours, 23,040 mg-hr/l): yes | Spore Germination B. subtilis ([7]; Example 2, 20 °C, MeBr 320 mg/l (theoretical), 96 hours, 30,720 mg-hr/l): yes | Spore Germination B. subtilis ([7]; Example 2, 27 °C, MeBr 240 mg/l (theoretical), 48 hours, 11,520 mg-hr/l): yes | Spore Germination B. subtilis ([7]; Example 2, 27 °C, MeBr 320 mg/l (theoretical), 72 hours, 23,040 mg-hr/l): no | Spore Germination B. subtilis ([7]; Example 2, 27 °C, MeBr 320 mg/l (theoretical), 96 hours, 30,720 mg-hr/l): no | Spore Germination B. subtilis ([7]; Example 2, 27 °C, MeBr 320 mg/l (theoretical), 96 hours, 30,720 mg-hr/l, chamber contained office commodities): no^4 | Spore Germination B. subtilis ([7]; Example 3, 19 °C, MeBr 48 mg/l (theoretical), 63 hours, 3,000 mg-hr/l): no | Spore Germination B. subtilis ([7]; Example 3, 27 °C, MeBr 320 mg/l (theoretical), 62 hours, 19,776 mg-hr/l): no | Spore Germination B. subtilis ([7]; Example 3, 32 °C, MeBr 160 mg/l (theoretical), 72 hours, 11,520 mg-hr/l): yes | Spore Germination B. subtilis ([7]; Example 3, 32 °C, MeBr 240 mg/l (theoretical), 48 hours, 11,520 mg-hr/l): no | Spore Germination B. subtilis ([7]; Example 3, 32 °C, MeBr 240 mg/l (theoretical), 72 hours, 17,280 mg-hr/l): no | Spore Germination B. subtilis ([7]; Example 3, 32 °C, MeBr 320 mg/l (theoretical), 38 hours, 12,160 mg-hr/l): no | Spore Germination B. subtilis ([7]; Example 3, 32 °C, MeBr 320 mg/l (theoretical), 47 hours, 15,104 mg-hr/l): no | Recovery of viable spores, commercial spore strips B. atrophaeus [8]: no growth; also recorded: growth | killing of B. atrophaeus spores on a spore strip [8]: insufficient to kill all B. atrophaeus spores
